Measured values reported in EP0428268A2, “Pharmaceutical phenylpyridone derivatives” (SMITH KLINE & FRENCH LABORATORIES LIMITED, priority 1989, dated 1991).
pIC50: −log10 of the molar value. Read-outs that look alike come from different tables or passages of the source. One block for each molecule: values may come before it.

Experiments:
[1] = tested on: spontaneous colonic activity; assay: Inhibition of spontaneous colonic activity in vitro (isolated distal colon, organ bath); parameters: species or system guinea-pigs; details: concentration reducing spontaneous colonic activity by 50%, guinea-pig distal colon, Krebs solution at 37°C, read-out: IC₅₀
From the text: Male albino guinea-pigs (300 - 400g) were killed by a blow to the back of the head and exsanguinated. A 2cm long segment of the proximal part of the hypogastric loop of the distal colon was rapidly dissected out and placed in oxygenated (95% O₂, 5% CO₂) modified warm Krebs solution. The tissue was cleaned out with Krebs and the adjoining mesentery discarded. Cotton was then tied to each end and the colon was attached to a tissue holder in an organ bath containing modified oxygenated Krebs solution at 37°C. The other end of the tissue was tied to an isometric transducer and placed under 1g tension. Force developed by the muscle was detected by the transducer, and recorded on a multitrace pen recorder. Spontaneous colonic activity, as assessed by the contraction distance over a five minute period, was subjected to computer analysis.
The tissues were allowed to settle at a resting tension of 1g for 1 hour, during which time they were washed at 15 minute intervals. Three samples of pre-dose activity were taken and averaged. The tissues were then dosed and two samples of post-dose activity were taken. The lowest value was used to calculate the percentage relaxation, and log dose response curves were constructed. The tissues were washed 10 minutes after dosing and left for 15 minutes to settle prior to the next control period. […]

ovalbumen = assay: Anti-allergic activity (ovalbumen challenge in sensitised animals, tracheal inflation pressure); assay type: in vivo, Duncan Hartley guinea-pigs; details: dose of 17 µmol/kg i.v.; ovalbumen challenge 30 minutes following drug administration
Description: Male Duncan Hartley guinea-pigs (250-300 g) were sensitised to ovalbumen by i.p. injection of 2 ml of 50mg.ml⁻¹ i.p. and 0.2 ml s.c. Three weeks later they were anaesthetised with 60mg.kg⁻¹ sodium pentabarbitone. The trachea was cannulated and the animal respired at a rate of 40 breaths per minute and at an initial tracheal inflation pressure of 16 mmHg. Tracheal inflation pressure was measured by a transducer connected to a side arm of the respiration circuit. The carotid artery was cannulated for the measurement of blood pressure and the signal was used to trigger an instantaneous rate meter. A jugular vein was cannulated for the administration of drug and allergen. After surgery the animals were allowed to stabilise and the drug was administered i.v. as a bolus. Following this, ovalbumen 1mg.kg⁻¹ was injected i.v. as the antigen challenge either 2, 15 or 30 minutes following drug treatment and the peak bronchoconstrictor response recorded. For the control group ovalbumen only was given. One ovalbumen challenge per guinea-pig was used and n = 6 for each time point. The percentage increase in tracheal inflation pressure was calculated.

pIC50 ([1]; Cavia porcellus): 5.52
Structure (SMILES): CCCOc1cc(OC)ccc1-c1ccc(C(N)=O)c(=O)[nH]1 [Example 9(b), 1,2-Dihydro-6-(4-methoxy-2-propoxyphenyl)-2-oxo-3-pyridine carboxamide]

pIC50 [1]: 5.96
Structure (SMILES): CCCOc1ccc(C(N)=O)cc1-c1ccc(C(N)=O)c(=O)[nH]1 [Example 13, 3-(3-Carboxamido-1,2-dihydro-2-oxo-6-pyidinyl)-4-propoxybenzamide]

Structure (SMILES): CC(C)COc1ccc(F)cc1-c1ccc(C(N)=O)c(=O)[nH]1 [Example 25, 6-(5-Fluoro-2-(2-methylpropoxy)phenyl)-1,2-dihydro-2-oxo-pyridine-3-carboxamide]
inhibition of the control bronchoconstrictor response (ovalbumen): 40%
